Here are results for 1 compound from patent US10016439B2, “Fused imidazole compounds” (ONO PHARMACEUTICAL CO., LTD., priority 2014, dated 2018).

Each structure is given as a SMILES string.

In general, Ki refers to the equilibrium dissociation constant of an inhibitor or competing ligand from its target. High values mean a looser hold on the target, low ones a stronger hold on the target. A word on the inhibition: it is the relative decrease from the control value, in per cent. The low end stands for little suppression, the high end for strong suppression.

One assay deals with Lister Hooded rat. Description: Rat Novel Object Recognition test. The note with it: 20 mg/kg p.o., 30 min prior to T1 and T2; 24 hr delay. The format is in vivo. From the text:
NOR (Novel Object Recognition test) is a two-trial spontaneous test of visual recognition memory that relies on the animal's natural tendency to explore novelty (Behav Brain Res, 1998, 31(1): pp. 47-59). Variation of the inter-trial interval (ITI) between acquisition (T1) and retention trials (T2) may be used to investigate either deficits or improvements in memory. A temporal performance deficit can be induced by increasing the ITI (approximately 24 hr), such that exploration of both objects in T2 is similar, enabling the pro-cognitive abilities of novel compounds to be evaluated.
Male, Lister Hooded rat (228-273 g at start of study; Harlan UK) was used.
Habituation to the grey, matt perspex NOR box twice a day, on two consecutive days, prior to testing. Each habituation session, consisted of a 3 min exposure to the empty test box (46×30×45 cm), followed by 1 min in the side annex (13×30×45 cm), and then a further 3 min in the test area. […]
Experimental protocol tests for improvement in attention/recognition memory via reversal of a 24 h delay-induced deficit in NOR. […] All performance measures were determined for each individual animal before statistical handling.
The T1 score, d1 and d2 index were analysed using 2-way ANOVA (treatment×object) followed by planned comparisons post-hoc LSD using single measure parametric analysis, based on least square (predicted) means in InVivoStat, UK.

Assay [1] deals with T1, GABAA α5/β3/γ2 (Homo sapiens (Human), UniProt P18507+P31644). Description: Binding assay (Scintillation Proximity Assay, [3H]-Ro15-1788). The note with it: membranes of HEK293 cells expressing GABAA α5/β3/γ2. The procedure: The GABAAα5/β3/γ2 protein used for the Scintillation Proximity Assay was derived from membranes produced from HEK293 GABAA α5/β3/γ2 expressing HEK293 cell line. HEK293 GABAA α5/β3/γ2 expressing HEK293 cell line was cultured, then harvested and centrifuged the cells. Membranes were produced by homogenization of the cell pellet with a tissue homogenizer. The resulting homogenate was centrifuged at 48,000 g for 30 minutes, re-suspended and washed twice with 10 mM potassium phosphate buffer, pH 7.4. Final resuspension of membranes took place in buffer containing 10 mM potassium phosphate and 100 mM KCl.
For assay, test compound (50×) was added 0.5 μl per well to a white-walled clear-bottomed 384-well plate.
Full signal controls were prepared by the addition of 0.5 μl of DMSO to the appropriate wells. Mixture of 10 μl of protein and 10 μl of PVT-WGA beads (0.2 mg/well) were added to the plate. Both protein and bead were diluted to the desired concentration with 10 mM potassium phosphate, pH 7.4, containing 100 mM KCl. The plate was pre-incubated for 30 minutes at room temperature with shaking before initiation of the reaction by the addition of radioligand. 5 μl of [^3H]-Ro15-1788 was added at a concentration of 30 nM (5×) and the plates sealed. The reaction mix was incubated at room temperature overnight with gentle agitation on a plate shaker. The final DMSO concentration for all phases of the screening was 2% (v/v). At the end of the overnight incubation, the plates were centrifuged for two minutes at 1,000 rpm prior to reading on a Perkin Elmer Microbeta.
Concentration-response testing was performed in duplicate and the percent effect calculated for each replicate data point. The raw data was entered in Activity Base and the curves were fitted to the mean data using Excel and XL Fit, and shown as Ki.
A general note: Scintillation proximity formats need no separation of bound from free tracer.

The target in assay [2] is T1, GABAA α5/β3/γ2. Description: Functional assay (PatchXpress automated patch-clamp), α5 subtype. The format is cell-based. The note with it: % change of GABA EC20 response; compound 1 μM; HEK293 cells. From the text:
(§1) GABAA α5/β3/γ2 HEK293 cell line was used throughout the functional assay in PatchXpress (Molecular Devices), the automated patch-clamp system. Cells stably expressing the appropriate GABAA subtype (α5/β3/γ2, α1/β3/γ2, α2/β3/γ2 or α3/β3/γ2) were dissociated from poly-D-lysine treated tissue culture flasks using a mixture of one part TrypLE (Invitrogen, cat #12604): one part Dulbecco's Phosphate Buffered Saline (Invitrogen, cat #14190). The dissociated cells were re-suspended in growth media (D-MEM/F-12 media (Invitrogen, cat #11320) supplemented with 10% (v/v) Foetal Bovine Serum (Invitrogen, cat #10082) and 1% (v/v) non-essential amino acids (Invitrogen, cat #11140)) and allowed to recover for one hour at 37° C. in a humidified incubator with 5% CO2. At the end of the recovery period cells were centrifuged at 1,000 rpm for two minutes and the resulting pellet re-suspended in external solution (in mM; 137 NaCl, 4 KCl, 10 HEPES, 1.8 CaCl2, 1 MgCl2, 10 glucose, pH set to 7.35 with NaOH). Cells were counted and diluted to 2.5×10^6/ml in external solution. The patch-clamp assay protocol involved determination of current amplitude with control applications of GABA EC20 containing concentration-matched DMSO (0.3% v/v), then pre-incubation of the test compound for one minute prior to the addition of the same compound diluted with the GABA EC20. Compound and/or GABA was applied for five seconds, with two minute wash periods between applications. No wash period was present at the end of the compound pre-application stage. The internal solution comprised (in mM) 90 KCl, 50 KF, 11 EGTA, 10 HEPES, 1 MgCl2, 2 Mg-ATP, the pH was set to 7.35 with KOH and the holding potential was −60 mV. Compounds were assayed at a concentration of 1 μM.
Background: The patch-clamp technique gives a direct electrical read-out from membranes.

The next assay has as its target GABAA α1/β3/γ2 (Homo sapiens (Human), UniProt P14867+P18507). Description: Functional assay (PatchXpress automated patch-clamp), α1 subtype. The class given is cell-based. The note with it: % change of GABA EC20 response; compound 1 μM; HEK293 cells.
Source text: as §1

T1 sequence (P31644 32-462): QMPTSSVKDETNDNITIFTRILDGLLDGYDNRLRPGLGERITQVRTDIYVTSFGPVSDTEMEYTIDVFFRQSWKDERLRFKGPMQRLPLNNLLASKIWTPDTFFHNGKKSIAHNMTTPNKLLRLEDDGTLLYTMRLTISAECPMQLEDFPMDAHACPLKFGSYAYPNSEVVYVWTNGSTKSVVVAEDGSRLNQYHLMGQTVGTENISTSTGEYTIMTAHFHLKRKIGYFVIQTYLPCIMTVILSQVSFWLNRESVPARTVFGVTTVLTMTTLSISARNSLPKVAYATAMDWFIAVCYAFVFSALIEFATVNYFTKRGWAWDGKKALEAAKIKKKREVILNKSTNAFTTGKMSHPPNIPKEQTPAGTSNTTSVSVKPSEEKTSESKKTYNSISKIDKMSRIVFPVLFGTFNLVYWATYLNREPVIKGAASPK
T1 sequence (P28472 26-473 partner): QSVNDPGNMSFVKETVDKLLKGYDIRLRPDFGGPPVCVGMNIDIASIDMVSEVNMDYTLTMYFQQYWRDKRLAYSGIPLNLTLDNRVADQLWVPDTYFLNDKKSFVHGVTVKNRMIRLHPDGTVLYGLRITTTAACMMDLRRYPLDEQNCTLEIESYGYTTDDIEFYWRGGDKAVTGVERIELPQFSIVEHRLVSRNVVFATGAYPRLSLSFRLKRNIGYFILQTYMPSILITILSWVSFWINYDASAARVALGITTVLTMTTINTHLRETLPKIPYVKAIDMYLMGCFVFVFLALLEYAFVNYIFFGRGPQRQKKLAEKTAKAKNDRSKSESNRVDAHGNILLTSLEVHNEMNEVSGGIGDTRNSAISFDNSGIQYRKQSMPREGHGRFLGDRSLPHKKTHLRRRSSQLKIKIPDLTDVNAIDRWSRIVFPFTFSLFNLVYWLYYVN
T1 sequence (P18507 40-475): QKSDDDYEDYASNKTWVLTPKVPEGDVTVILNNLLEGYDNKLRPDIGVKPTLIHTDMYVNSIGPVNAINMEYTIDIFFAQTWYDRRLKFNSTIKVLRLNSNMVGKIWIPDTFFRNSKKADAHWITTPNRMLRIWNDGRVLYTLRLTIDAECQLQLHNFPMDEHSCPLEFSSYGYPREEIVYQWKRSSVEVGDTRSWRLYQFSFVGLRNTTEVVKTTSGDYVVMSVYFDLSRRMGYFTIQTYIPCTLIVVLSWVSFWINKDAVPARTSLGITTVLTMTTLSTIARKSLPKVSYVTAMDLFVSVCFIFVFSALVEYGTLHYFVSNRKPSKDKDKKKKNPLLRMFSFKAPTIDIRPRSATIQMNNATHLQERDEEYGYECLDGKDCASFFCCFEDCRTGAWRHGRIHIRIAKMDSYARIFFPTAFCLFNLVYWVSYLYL
Sequence of GABAA α1/β3/γ2 (P14867 28-456): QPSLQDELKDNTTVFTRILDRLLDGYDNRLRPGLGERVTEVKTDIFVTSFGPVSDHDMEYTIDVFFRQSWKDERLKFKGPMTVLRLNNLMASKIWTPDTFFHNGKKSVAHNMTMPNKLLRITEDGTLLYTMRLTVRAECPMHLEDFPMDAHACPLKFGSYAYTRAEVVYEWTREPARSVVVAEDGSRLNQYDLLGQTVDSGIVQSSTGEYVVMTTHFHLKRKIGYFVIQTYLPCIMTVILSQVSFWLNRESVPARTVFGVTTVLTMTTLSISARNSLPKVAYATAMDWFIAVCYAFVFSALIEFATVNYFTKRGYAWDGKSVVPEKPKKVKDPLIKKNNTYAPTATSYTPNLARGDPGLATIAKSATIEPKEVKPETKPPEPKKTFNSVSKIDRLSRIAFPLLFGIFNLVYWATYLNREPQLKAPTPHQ
Sequence of GABAA α1/β3/γ2 (P28472 26-473 partner): as the sequence (P28472 26-473 partner) above
Sequence of GABAA α1/β3/γ2 (P18507 40-475): as the sequence (P18507 40-475) above

Take `Cc1cc(Nc2cc3c(cc2Cl)N(C)C(=O)CO3)nc2c1ncn2CC1CC1` [Example 160, 6-Chloro-7-((3-(cyclopropylmethyl)-7-methyl-3H-imidazo[4,5-b]pyridin-5-yl)amino)-4-methyl-2H-benzo[b][1,4]oxazin-3(4H)-one]: the “d2 index score (performance in NOR)” value in the assay with Lister Hooded rat was “significantly improved performance”. In addition, the inhibition constant (Ki) at GABAA α5/β3/γ2 [1] amounted to 0.9 nM. Moreover, the figures for the inhibition at 1 µM against GABAA α5/β3/γ2 [2] and at GABAA α1/β3/γ2 were 42.5% and 9.8%, respectively.
